Test results as given in patent US20170143674A1, “Use of Glutaryl Histamine for the Treatment of Respiratory Tract Diseases” (LTD "VALENTA-INTELLEKT", priority 2011, published 2017).
Marks after values point to notes of the source that are not given here.

How the values were obtained:
[1] = tested on: acute rhinosinusitis induced by intranasal administration of formalin; format: in vivo, rat
Description: Activity of glutaryl histamine was studied in an experimental model of acute rhinosinusitis (ARS).
Administration of 20 μl of 7.5% formalin to the rat nasal passages leads to the development of a clinical picture similar to the symptoms of acute rhinosinusitis in a human.
The tested medicament and reference medicaments were administered for 7 days after administration of 7.5% formalin. Normal saline solution was used as placebo. The animals were subjected to euthanasia on day 8 after induction of experimental acute rhinosinusitis by method of air embolism. During necropsy, nasal passages of all animals were sampled. The obtained material was placed into 10% neutral-buffered formalin for further histological analysis.
The mucous and submucous membranes of both nasal passages (respiratory and olfactory regions) of the experimental animals were subjected to a morphological analysis of the specific activity of glutaryl histamine.
After the clinical phase of the experiment, the material derived from the animals was subjected to the standard treatment to prepare histological paraffin sections with a thickness of 3 to 5 μm. The sections were stained with hematoxylin and eosin for a microscopic study. Comparison and histological analysis of changes were performed versus the group of intact rats.
The main pathological processes inherent in experimental acute rhinosinusitis, such as vascular congestion in mucous membrane, hyperplasia and necrosis of the epithelium, the number of caliciform cells within 1 mm of the mucous membrane in the nasal septum, were evaluated by a semi-quantitative method to evaluate the degree of pathophysiological changes in histological, histochemical and morphological studies.
The microscopic analysis of exudative disorder developed in rats with acute rhinitis was aimed at measuring the number of caliciform cells comprising acidic mucus (Table 3).

LPS-induced tonsillitis = LPS-induced tonsillitis model (E. coli LPS into cervical lymph node); format: in vivo
Description: This example is aimed at evaluating the activity of glutaryl histamine on experimental model of tonsillitis. LPS-induced tonsillitis is one of the most adequate models for the study of the pathogenesis, pathomorphological changes and action of pharmacological medicaments on the course of this disease.
Tonsillitis was induced under anesthesia by administration of a solution of E. coli lipopolysaccharide (LPS) (Sigma) in normal physiological solution in a dose of 20 μg/kg, by 10 μl to the right upper lymph node (Inn. Cervicales superficiales). After administration, the lymph nodes were put under superficial neck muscles and then the skin was stitched. The wound was treated with streptocide. The animal was placed into a post-operation cage.
The tested medicament was administered once daily in a given dose strictly at the stated time for three days before the induction of tonsillitis and 10 days after. Normal saline solution was used as placebo.
Immediately after euthanasia, the animals were subjected to necropsy, the affected and intact lymph nodes were removed and weighed.
The lymph nodes derived from the half of animals from each group were being frozen after removal in a refrigerating chamber at −25° C. for 72 hours. Then the lymph nodes were lyophilized.
In a half of animals from each group (7), the affected lymph nodes were subjected to histological analysis. After euthanasia, intact and affected lymph nodes were removed from each animal. […] Sections with a thickness of 4 to 6 μm were prepared from the paraffin blocks, stained with hematoxylin and eosin to reveal typical pathological processes and study required parameters using light-optical microscope Leica DM LS (magnification 200× and 400×).
Weights of intact and affected lymph nodes were compared and the nodes also were lyophilized to evaluate an effect of the medicaments on the swelling degree and adequacy of the model of tonsillitis.
The protein-synthetic function of the liver and a systemic effect of the medicaments on organism were evaluated in total protein (TP) analysis.

[2] = tested on: acute respiratory distress syndrome (ARDS); experiment: ARDS model, single intravenous LPS 7.5 mg/kg; format: in vivo, rat; conditions: Dexamethasone 5 mg/kg
Description: (§1) Since an intravenous administration of lipopolysaccharide (LPS) to animals is one of the most acceptable models for studying the pathogenesis, pathomorphological changes and consequences of acute respiratory distress syndrome, this model was used in this example. Tested medicament glutaryl histamine was administered for 9 days after the first administration of LPS, i.e. glutaryl histamine was administered for 12 days in total (3 days before the induction of ARDS and 9 days during and after the induction). The exception was dexamethasone since, according to the literature data and the information leaflet, long-time administration of steroidal anti-inflammatory agents can cause severe side effects. For this reason, dexamethasone was administered according to the following schedule: 49, 24 and 1 hour before the induction of ARDS in a dose of 5 mg/kg, for 3 days after the first injection of LPS in the same dose; the medicament was withdrawn by a gradual dose reduction for 3 days. Thus, dexamethasone was administered 9 times.
The mortality rate among the animals administered LPS in an intravenous dose of 7.5 mg/kg was 70% for 8 days. The most of them (60%) died on the first day, in particular, from 4 to 12-16 hours after the injection of LPS. The mortality rate among the animals administered glutaryl histamine was different from the rate in animals treated with dexamethasone; however, most of them also died on the first day, about in the same time period (Table 11).

[3] = tested on: acute respiratory distress syndrome (ARDS); experiment: ARDS model, multiple-dose intravenous LPS (LD30); format: in vivo, rat
Description: as §1
At this step, animals were administered LPS at more lower dose, but for longer time period. They were received 2 mg/kg on days 1 and 2, and 3 and 4 mg/kg on days 3 and 4, respectively. The maximum mortality rate, similarly to the single-dose administration of LD70, was on the first day. On eighth day, mortality reached 33%.
The second step of the experiment comprises the evaluation of both the mortality rate of the animals with calculation of the protective index and narrower indexes used for determination of a specific protection provided by glutaryl histamine in ARDS. As was disclosed above, a lower dose of LPS (LD30) was used at the second stage. In addition, LPS was administered every day for 4 days. This method of administration was aimed at achieving the maximum disorder exactly in the lung for subsequent evaluation of possible protective action of glutaryl histamine.

`C[C@@H]1C[C@H]2[C@@H]3CCC4=CC(=O)C=C[C@]4(C)[C@@]3(F)[C@@H](O)C[C@]2(C)[C@@]1(O)C(=O)CO` [Dexamethasone, dexamethasone, reference compound] was tested, and the “Mucopurulent catarrh (number of rats)” value ([1]; Dexamethasone 5 mg/kg, n = 10) was 0, the “Mucous catarrh (number of rats)” value ([1]; Dexamethasone 5 mg/kg, n = 10) was 1 and the “Without changes (number of rats, mucous membrane in the nasal passages, macroscopic)” value ([1]; Dexamethasone 5 mg/kg, n = 10) was 9. The “The number of caliciform cells within 1 mm of the mucosal membrane of the nasal septum” value ([1]; Dexamethasone (5 mg/kg), M ± m) was 15.6 ± 0.6, the “Mortality rate (%)” value (LPS-induced tonsillitis; Dexamethasone 5 mg/kg) was 64% and the “The number of died animals/initial number of animals in a group” value (LPS-induced tonsillitis; Dexamethasone 5 mg/kg) was 9/14. The “Area of germinal centers of lymphoid follicles in affected lymph nodes” value (LPS-induced tonsillitis; Dexamethasone (5 mg/kg), M ± m) was 0.016 ± 0.004* ** mm^2, the “Weight difference between affected and intact lymph nodes” value (LPS-induced tonsillitis; Dexamethasone (5 mg/kg), M ± m) was 15.6 ± 1.8 mg and the “IP (%) (protective index)” value [2] was 28.6%. The “S (%) (survival rate)” value [2] was 50%, the “Me (%) (mortality rate)” value ([2]; 8 days) was 50% and the Died ([2]; total number 10) was 5. The “IP (%) (protective index)” value ([3]; Dexamethasone 5 mg/kg) was 62.5%, the “M (%) (mortality rate)” value ([3]; Dexamethasone 5 mg/kg) was 12.5% and the “S (%) (survival rate)” value ([3]; Dexamethasone 5 mg/kg) was 87.5%. For the same molecule, the Died ([3]; Dexamethasone 5 mg/kg, total number 24) was 3 and the “mortality rate for the first three days” value ([3]; dexamethasone (5 mg/kg), first three days) was 0%.
